Experimental data published in ChEMBL document CHEMBL1201862, “PubChem BioAssay data set” (2004).
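The compound was tested at five concentrations on cells cultured in 96-well plates, with a 48-hour exposure period. GI50: concentration for 50% inhibition of growth.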 Calls of active or inactive are those of the source. Rule as the data show it: active = GI50 up to about 1.1 µM and inactive = higher.

What was measured:
Test in all cases: growth of human tumour cells (NCI), 48 h
HL-60 = system: HL-60
LOX IMVI = system: LOX IMVI
MDA-MB-231 = system: MDA-MB-231
MDA-MB-435 = system: MDA-MB-435
MDA-N = system: MDA-N
MOLT-4 = system: MOLT-4
NCI-H460 = system: NCI-H460
OVCAR-3 = system: OVCAR-3
OVCAR-4 = system: OVCAR-4
PC-3 = system: PC-3
RPMI-8226 = system: RPMI-8226
SF-295 = system: SF-295
SF-539 = system: SF-539
SN12C = system: SN12C
SR = system: SR
SW-620 = system: SW-620
T47D = system: T47D
TK-10 = system: TK-10
UACC-257 = system: UACC-257
UO-31 = system: UO-31

SMILES	GI50 (HL-60)	GI50 (LOX IMVI)	GI50 (MDA-MB-231)	GI50 (MDA-MB-435)	GI50 (MDA-N)	GI50 (MOLT-4)	GI50 (NCI-H460)	GI50 (OVCAR-3)	GI50 (OVCAR-4)	GI50 (PC-3)	GI50 (RPMI-8226)	GI50 (SF-295)	GI50 (SF-539)	GI50 (SN12C)	GI50 (SR)	GI50 (SW-620)	GI50 (T47D)	GI50 (TK-10)	GI50 (UACC-257)	GI50 (UO-31)
COC(=O)C#Cc1cccc(OC)c1OC	33 µM (inactive)	33.7 µM (inactive)	62.8 µM (inactive)	33.7 µM (inactive)	40.7 µM (inactive)	14 µM (inactive)	48.1 µM (inactive)	41.1 µM (inactive)	20.4 µM (inactive)	36.7 µM (inactive)	30.1 µM (inactive)	40.5 µM (inactive)	21.6 µM (inactive)	48.1 µM (inactive)	18.7 µM (inactive)	47 µM (inactive)	> 100 µM (inactive)	41.8 µM (inactive)	> 100 µM (inactive)	20.4 µM (inactive)
Cc1cc(CCC(=O)NCCNc2c3ccccc3nc3ccccc23)cc(C)c1O[Si](C)(C)C(C)(C)C	1.52 µM (inactive)	0.148 µM (active)	13.1 µM (inactive)	0.3 µM (active)	0.399 µM (active)	0.414 µM (active)	0.762 µM (active)	1.96 µM (inactive)	1.32 µM (inactive)	1.55 µM (inactive)	0.331 µM (active)	0.807 µM (active)	0.194 µM (active)	15.5 µM (inactive)	0.214 µM (active)	0.215 µM (active)	0.351 µM (active)	1.63 µM (inactive)	2.01 µM (inactive)	1.83 µM (inactive)
O=C1NC(SSC2=NNC3(C(=O)N2)c2ccccc2-c2ccccc23)=NNC12c1ccccc1-c1ccccc12	> 10 µM (inactive)	> 10 µM (inactive)	> 10 µM (inactive)	> 10 µM (inactive)	> 10 µM (inactive)	> 10 µM (inactive)	> 10 µM (inactive)	> 10 µM (inactive)	> 10 µM (inactive)	> 10 µM (inactive)	> 10 µM (inactive)	> 10 µM (inactive)	> 10 µM (inactive)	> 10 µM (inactive)	> 10 µM (inactive)	> 10 µM (inactive)	> 10 µM (inactive)	> 10 µM (inactive)	> 10 µM (inactive)	> 10 µM (inactive)
CS(=O)(=O)C[S+]([O-])C[S+]([O-])C[S+]([O-])CC(NC(=O)CCC(N)C(=O)O)C(=O)O (stereo not given)	32.8 µM (inactive)	> 100 µM (inactive)	> 100 µM (inactive)	> 100 µM (inactive)	> 100 µM (inactive)	> 100 µM (inactive)	> 100 µM (inactive)	> 100 µM (inactive)	> 100 µM (inactive)	> 100 µM (inactive)	> 100 µM (inactive)	> 100 µM (inactive)	> 100 µM (inactive)	> 100 µM (inactive)	16.3 µM (inactive)	> 100 µM (inactive)	> 100 µM (inactive)	> 100 µM (inactive)	> 100 µM (inactive)	> 100 µM (inactive)
OC(C/C(=N\N1CCCCC1)c1cccs1)(C(F)(F)F)C(F)(F)F	> 10 µM (inactive)	> 10 µM (inactive)	> 10 µM (inactive)	> 10 µM (inactive)	> 10 µM (inactive)	> 10 µM (inactive)	> 10 µM (inactive)	> 10 µM (inactive)	> 10 µM (inactive)	> 10 µM (inactive)	> 10 µM (inactive)	> 10 µM (inactive)	> 10 µM (inactive)	> 10 µM (inactive)	> 10 µM (inactive)	> 10 µM (inactive)	> 10 µM (inactive)	> 10 µM (inactive)	> 10 µM (inactive)	> 10 µM (inactive)
N#C/C(=C\NC(=S)c1ccncc1)c1nc2ccccc2s1	> 100 µM (inactive)	> 100 µM (inactive)	39.6 µM (inactive)	> 100 µM (inactive)	> 100 µM (inactive)	31.2 µM (inactive)	68.7 µM (inactive)	43.4 µM (inactive)	> 100 µM (inactive)	> 100 µM (inactive)	> 100 µM (inactive)	> 100 µM (inactive)	> 100 µM (inactive)	> 100 µM (inactive)	74.6 µM (inactive)	> 100 µM (inactive)	37.9 µM (inactive)	65.2 µM (inactive)	30.9 µM (inactive)	> 100 µM (inactive)
